The values below come from patent US10716828B2, “Methods of modulating cellular homeostatic pathways and cellular survival” (Dana-Farber Cancer Institute, Inc., priority 2007, dated 2020).

This data set relates to islets. The experiment in a line: Toxicity to islets. It is filed as cell-based, mouse. To be noted: 3 μM.

As to `CSCC[C@@H]1NC(=O)[C@@](C)(NC(=O)[C@H](CCCNC(=N)N)NC(=O)[C@H](CC(C)C)NC(=O)[C@H](CCC(=O)O)NC(=O)[C@H](CCCNC(=N)N)NC(=O)CNC(=O)[C@H](Cc2ccc(O)cc2)NC(=O)[C@H](CCCNC(=N)N)NC(=O)[C@H](CCC(N)=O)NC(=O)[C@H](C)NC(=O)[C@H](C)NC(=O)[C@H](Cc2c[nH]c3ccccc23)NC(=O)[C@H](CC(C)C)NC(=O)[C@@H](N)CC(N)=O)CCCC=CCCC[C@@](C)(C(=O)N[C@@H](Cc2ccccc2)C(=O)N[C@H](C(=O)N[C@@H](CC(=O)O)C(=O)N[C@@H](CO)C(=O)N[C@@H](Cc2ccccc2)C(=O)N[C@@H](CCCCN)C(=O)N[C@@H](CCCCN)C(=O)O)C(C)C)NC(=O)[C@H](CC(=O)O)NC(=O)[C@H](CO)NC1=O` [BAD SAHBA], the toxicity to islets result is reported as “not toxic to islets”.
